Reference: patent US5652105A, “Substrate for detection of mammalian 5-C-DNA methyltransferase” (Health Research, Inc., priority 1995, dated 1997)

Legend:
Friend leukemia cells = assay: Growth of Friend leukemia cells treated with phosphorothioate end capped oligomers; format: cell-based, murine; parameters: dose or concentration left out as unconfirmed; conditions: concentrations of oligomers
Experimental: Having established that specific phosphorothioate end capped ODNs retain activity against DNA methyltransferase, their biological effects were examined in intact Friend cells: the biological effects of oligomer A were compared to oligomer B which has no available substrate sites and thus cannot be an inhibitor of DNA methyltransferase, and of oligomer D with oligomer C which has no FC.
A test was conducted to determine if these oligomers affect growth or differentiation of Friend leukemia cells. If growth effects are due to the toxicity of FC released from oligomers, then oligomer A and oligomer B should have equivalent effects and oligomer C should have no effect on growth.
Oligomer C may have a minor effect if it competes with endogenous DNA for DNA methyltransferase binding in a reversible manner. If, however, growth effects are due to a generalized effect of high oligomer concentration, then all oligomers, A, B and C, should affect growth similarly.

murine DNA 5-C-MTase [1] = assay: Methylation assay: methyl transfer from [methyl-3H]AdoMet to ODNs by DNA methyltransferase from Friend erythroleukemia cell nuclei; format: biochemical
Experimental: The phosphoramidite of 5-fluorodeoxycytidine (5FdC) and unmodified 5-methyl deoxycytosine (5MdC) and 5FC-containing ODNs were synthesized and purified as described in Marasco, C. J. et al., J. Org. […] 5MdC phosphoramidite is commercially available. ss ODNs were heated to 90° C. for 10 min and quickly chilled on ice immediately prior to assay. […] For ds ODNs, an equimolar mixture of complementary ODNs was heated to 90° C. for 10 min and slowly cooled to room temperature.
Preparation of Murine DNA 5-C-MTase. The DNA 5-C-MTase used in these studies was the 100,000×g supernatant of a 0.3M NaCl extract of Friend erythroleukemia cell nuclei.
Methylation Assay. Reaction mixtures (50 μl ) in 0.1M imidazole, pH 7.4/20 mM EDTA/0.5 mM dithiothreitol contained 0.5 μg of each ODN indicated, ≈0.6 units of DNA 5-C-MTase (1 unit transfers 1 pmol to A (AS)·A'Mp (M1) per min; see Table 7), and 2.8 μCi (1 Ci=37 GBq) of [methyl-^3 H]AdoMet (AdoMet=S-adenosylmethionine) (8 μM). […] For accuracy, methylation rates <5 pmol/30 min were measured in quadrupled reaction mixtures (200 μl ). After incubation for 30 min at 37° C., ODNs were processed for quantitation of radiolabel as described (20) with 25 μg of salmon sperm DNA added as carrier prior to perchloric acid precipitation.
All assays were performed in duplicate.

[2] = tested on: bacterial SssI methyltransferase; assay: DNA methylase substrate activity with bacterial SssI enzyme preparation; format: biochemical
From the text: (§1) They are labeled Sense (S), Antisense (AS), Methylated Antisense 1 (M1) and Methylated Antisense 2 (M2). […] This property of M2 provides an approach to accurately monitoring levels of DNA methyltransferase activity in clinically obtained tissue samples that might otherwise be contaminated by bacteria, since bacterial DNA methyltransferase activity would be excluded as a component of this measurement.
RESULTS ARE AVERAGE OF 2 EXPTS. BACTERIAL SSS1 ENZYME PREPARATION. ASSAYE

[3] = tested on: bacterial DNA methyltransferases; assay: Methylation by bacterial DNA methyltransferases that require double stranded DNA; format: biochemical
From the text: as §1

murine DNA 5-C-MTase [4] = assay: Methylation assay: methyl transfer from [methyl-3H]AdoMet to ODNs by DNA methyltransferase from Friend erythroleukemia cell nuclei; format: biochemical; conditions: Table 2; enzyme preparation from Friend leukemia cells; 1 μg oligomer; average of 2 expts; background 2691
[5] = target: T1, DNA 5-C-methyltransferase (murine, Friend erythroleukemia cells) (Mus musculus, UniProt P13864 P13864:1-1620); assay: methylation rate; 150 in Table 10; conditions: protein: extract; tags: 0.3 M NaCl nuclear extract, 100,000 x g supernatant; single approx. 190 kDa species forming covalent complexes
T1 sequence (P13864 whole entry, one chain of several): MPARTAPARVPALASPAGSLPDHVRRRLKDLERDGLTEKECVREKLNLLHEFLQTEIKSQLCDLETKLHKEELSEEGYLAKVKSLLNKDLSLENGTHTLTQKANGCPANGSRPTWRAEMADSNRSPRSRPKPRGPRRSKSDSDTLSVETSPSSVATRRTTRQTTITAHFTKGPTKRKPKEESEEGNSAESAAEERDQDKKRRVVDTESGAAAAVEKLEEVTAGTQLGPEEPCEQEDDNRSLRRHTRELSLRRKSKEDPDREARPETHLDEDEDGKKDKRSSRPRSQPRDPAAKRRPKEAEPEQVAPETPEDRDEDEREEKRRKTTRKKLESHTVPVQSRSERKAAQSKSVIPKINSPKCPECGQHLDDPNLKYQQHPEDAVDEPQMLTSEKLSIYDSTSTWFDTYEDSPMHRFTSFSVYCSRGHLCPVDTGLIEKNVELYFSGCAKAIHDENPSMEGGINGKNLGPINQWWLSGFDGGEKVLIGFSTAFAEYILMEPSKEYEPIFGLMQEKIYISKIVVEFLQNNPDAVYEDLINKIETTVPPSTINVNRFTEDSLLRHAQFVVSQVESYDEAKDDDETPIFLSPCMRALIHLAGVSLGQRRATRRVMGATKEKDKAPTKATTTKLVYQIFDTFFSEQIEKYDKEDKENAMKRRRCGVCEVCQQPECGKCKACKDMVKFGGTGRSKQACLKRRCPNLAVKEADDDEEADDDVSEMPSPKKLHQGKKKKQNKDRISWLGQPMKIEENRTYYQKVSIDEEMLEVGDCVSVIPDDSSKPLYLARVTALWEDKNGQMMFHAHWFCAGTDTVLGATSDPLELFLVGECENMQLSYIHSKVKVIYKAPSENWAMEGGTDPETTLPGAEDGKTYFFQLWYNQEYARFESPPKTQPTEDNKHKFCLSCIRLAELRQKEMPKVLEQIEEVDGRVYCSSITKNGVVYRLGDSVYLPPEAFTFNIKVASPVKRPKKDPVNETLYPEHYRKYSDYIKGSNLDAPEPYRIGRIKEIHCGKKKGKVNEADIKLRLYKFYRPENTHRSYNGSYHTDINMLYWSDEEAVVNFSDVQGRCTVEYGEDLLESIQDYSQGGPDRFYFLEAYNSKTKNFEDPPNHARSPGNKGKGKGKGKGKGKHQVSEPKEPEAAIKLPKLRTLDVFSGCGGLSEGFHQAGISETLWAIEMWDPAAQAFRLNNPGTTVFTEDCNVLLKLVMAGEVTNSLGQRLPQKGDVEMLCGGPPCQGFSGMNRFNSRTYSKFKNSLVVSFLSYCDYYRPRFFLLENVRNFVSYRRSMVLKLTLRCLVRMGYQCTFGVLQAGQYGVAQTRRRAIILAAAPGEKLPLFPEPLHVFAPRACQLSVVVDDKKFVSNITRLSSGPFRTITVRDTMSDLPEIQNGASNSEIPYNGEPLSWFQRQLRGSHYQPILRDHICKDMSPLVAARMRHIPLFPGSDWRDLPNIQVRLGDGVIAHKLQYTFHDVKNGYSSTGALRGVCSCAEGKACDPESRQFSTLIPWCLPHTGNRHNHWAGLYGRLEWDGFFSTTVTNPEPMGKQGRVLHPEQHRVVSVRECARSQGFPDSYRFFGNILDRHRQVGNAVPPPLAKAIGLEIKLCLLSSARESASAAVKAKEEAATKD
Experimental: (§2) Methylation Assay. Reaction mixtures (50 µl) in 0.1M imidazole, pH 7.4/20 mM EDTA/0.5 mM dithiothreitol contained 0.5 µg of each ODN indicated, ≈0.6 units of DNA 5-C-MTase (1 unit transfers 1 pmol to A (AS)·A'M_p (M1) per min; see Table 7), and 2.8 µCi (1 Ci=37 GBq) of [methyl-^3H]AdoMet (AdoMet=S-adenosylmethionine) (8 µM). Substrate C sites are in excess in the reaction, and methyl transfer is linear for >45 min. For accuracy, methylation rates <5 pmol/30 min were measured in quadrupled reaction mixtures (200 µl). After incubation for 30 min at 37° C., ODNs were processed for quantitation of radiolabel as described (20) with 25 µg of salmon sperm DNA added as carrier prior to perchloric acid precipitation.

[6] = target: T1, DNA 5-C-methyltransferase (murine, …); assay: methylation rate; 170 in Table 6, 130 in Table 10; conditions: protein: extract; tags: 0.3 M NaCl nuclear extract, 100,000 x g supernatant; single approx. 190 kDa species forming covalent complexes
[7] = target: T1, DNA 5-C-methyltransferase (murine, …); assay: inhibition; methylation rate; 3 in Table 6; potent inhibitor; conditions: protein: extract; tags: 0.3 M NaCl nuclear extract, 100,000 x g supernatant; single approx. 190 kDa species forming covalent complexes
[8] = target: T1, DNA 5-C-methyltransferase (murine, …); assay: methylation rate; conditions: protein: extract; tags: 0.3 M NaCl nuclear extract, 100,000 x g supernatant; single approx. 190 kDa species forming covalent complexes; potential stem-loop
[9] = target: T2, Hha I DNA methyltransferase (UniProt P05102 P05102:1-327); assay: ss ODNs not substrates at 37 C
T2 sequence: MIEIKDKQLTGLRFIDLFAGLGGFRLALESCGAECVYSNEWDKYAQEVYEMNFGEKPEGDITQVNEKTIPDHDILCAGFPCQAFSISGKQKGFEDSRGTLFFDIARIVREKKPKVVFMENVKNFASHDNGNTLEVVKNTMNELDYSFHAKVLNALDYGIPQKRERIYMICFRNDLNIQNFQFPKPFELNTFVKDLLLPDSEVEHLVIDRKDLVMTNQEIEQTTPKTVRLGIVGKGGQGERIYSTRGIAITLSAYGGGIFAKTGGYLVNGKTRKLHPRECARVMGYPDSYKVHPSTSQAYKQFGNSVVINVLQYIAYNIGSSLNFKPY

[10] = target: T1, DNA 5-C-methyltransferase (murine, …); assay: methylation rate; 128 in Table 10; conditions: protein: extract; tags: 0.3 M NaCl nuclear extract, 100,000 x g supernatant; single approx. 190 kDa species forming covalent complexes
Experimental: as §2

## ATTGCGNATTCCGGATCNGCGATC (phosphorothioate end caps, 5-MeC 7, 5-FC 18, further chemistry not given here) [Oligomer A, phosphorothioate end capped ASM7F18]
Friend leukemia cells
  inhibition of growth of Friend leukemia cells (in words): more potent that B
Murine DNA 5-C-MTase [1]; oligomer A compared with capped ASM7, cell free enzyme assay
  inhibition of methylation by incorporation of FC in position 18: 97%

## ATTGCGNATTCCGGATCCGCGATC (phosphorothioate end caps, 5-methylcytosine 7, further chemistry not given here) [Oligomer C, phosphorothioate end capped ASM7]
Friend leukemia cells
  inhibition of growth of Friend leukemia cells (in words): no appreciable effect

## 5' ATTGCGNATTNCGGATNCGCGATC 3' (5-methylcytosine at 7, 11, 17, further chemistry not given here) [M2, AS with 5-methylcytosine (N) at 7, 11, 17 (non-CpG sites)]
[2]
  substrate activity for bacterial SssI methyltransferase (in words): only moderate activity as a substrate
[2]; Table 3, bacterial SssI enzyme preparation, 0.25 μg oligomer, average of 2 expts, background 1351
  DNA METHYLASE SUBSTRATE ACTIVITY, ACTIVITY (CPM): 51047 CPM
[3]
  methylation by most bacterial DNA methyltransferases (in words): not methylated
Murine DNA 5-C-MTase [1]
  substrate activity for mammalian DNA methyltransferase (in words): exceptional substrate activity
Murine DNA 5-C-MTase [1]; Table 4, single and double stranded constructs, average of 2 expts, background 1813
  DNA METHYLASE (FL) SUBSTRATE ACTIVITY, ACTIVITY (CPM): 157027 CPM
Murine DNA 5-C-MTase [1]; Table 9, ss ODNs with 5MeC substituted for C at the sites given
  RATE (rate of methylation relative to A): 130
Murine DNA 5-C-MTase [1]; Table 10, ss ODNs with 5 mC and 5 FC substitutions
  RATE (rate of methylation relative to A): 128
Murine DNA 5-C-MTase [4]
  DNA METHYLASE SUBSTRATE ACTIVITY, ACTIVITY (CPM): 882284 CPM

## ATTGCGCATTCCGGATCCGCGATC (ssDNA, 5mC at 5) [ASM5]
[5]
  binding signal: 175 relative to A

## ATTGCGCATTCCGGATCCGCGATC (ssDNA, 5mC at 7 [5mC at 7]) [ASM7]
[6]
  binding signal: 140 relative to A

## ATTGCGCATTCCGGATCCGCGATC (ssDNA, 5mC at 7; 5-fluoro-C at 18 [5mC at 7; 5-fluoro-C at 18]) [ASM7 F18]
[7]
  binding signal: 3.2 relative to A

## ATGACGCACCTCGTTGACGCGCTA (ssDNA, 5mC at 7) [structure 6 ODN]
[8]
  binding signal: > 300 relative to A

## GATCGCGGATCCGGAATGCGCAAT (ssDNA) [S (A')]
[9]
  binding result: no binding

## ATTGCGCATTCCGGATCCGCGATC (ssDNA, 5mC at 7,11,17 [5mC at 7,11,17]) [M2 (AMx)]
[10]
  binding signal: 130 relative to A
